In patent US6310095A, “Inhibitors of protein isoprenyl transferases” (University of Pittsburgh, priority 1998, dated 2001):
Structures can show the parent of a compound that is named as a salt.

Target: T1, protein farnesyltransferase (Rattus norvegicus, UniProt Q02293+Q04631)
T1 construct: Rat brain protein farnesyltransferase activity is measured; from tissue; host or cells: rat brain; purified according to Reiss et al., Cell 62:81-88 (1990), steps one through three
Test: in vitro inhibition of protein farnesyltransferase (scintillation proximity assay, biotin-K Ras B fragment)
Format: biochemical
Details: at 1 × 10^-6 M
Procedure, shortened: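 Scintillation proximity read-out of farnesylation, using a biotinylated K Ras B fragment (0.1 mM final) in place of biotin-lamin. Enzyme purified from rat brain; results given as % inhibition.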

Row | Structure (SMILES) | % inhibition of farnesyltransferase [%]
1 | CSCC[C@H](NC(=O)c1ccc(CS[C@H](CO)Cc2ccccc2)cc1-c1ccccc1)C(=O)O [Example 545] | 88
2 | CSCC[C@H](NC(=O)c1ccc(OC/C=C(\C)CCC=C(C)C)cc1-c1ccccc1C)C(=O)O [Example 546] | 97
3 | CSCC[C@H](NC(=O)c1ccc(OC/C=C(\C)CC/C=C(\C)CCC=C(C)C)cc1-c1ccccc1C)C(=O)O [Example 547] | 91
4 | CSCC[C@H](NC(=O)c1ccc(CSC2CCCCC2)cc1-c1ccccc1C)C(=O)[O-].[Li+] [Example 550] | 96
5 | CSCC[C@H](NC(=O)c1ccc(OCCC2CCCCC2)cc1-c1ccccc1C)C(=O)[O-].[Li+] [Example 552] | 88
6 | CSCC[C@H](NC(=O)c1ccc(OCCC23CC4CC(CC(C4)C2)C3)cc1-c1ccccc1C)C(=O)O [Example 553] | 92
7 | CSCC[C@H](NC(=O)c1ccc(CSCc2ccccc2)cc1-c1ccccc1C)C(=O)[O-].[Li+] [Example 554] | 96
8 | CSCC[C@H](NC(=O)c1ccc(CS(=O)(=O)Cc2ccccc2)cc1-c1ccccc1C)C(=O)O [Example 555] | 85
9 | CSCC[C@H](NC(=O)c1ccc(CSCc2ccc(C)cc2)cc1-c1ccccc1C)C(=O)[O-].[Li+] [Example 556] | 99
10 | CSCC[C@H](NC(=O)c1ccc(CSCc2ccccc2C)cc1-c1ccccc1C)C(=O)[O-].[Li+] [Example 557] | 93
11 | CSCC[C@H](NC(=O)c1ccc(OC/C=C/c2ccccc2)cc1-c1ccccc1C)C(=O)O [Example 560] | 91
12 | CSCC[C@H](NC(=O)c1ccc(OCCOc2ccccc2)cc1-c1ccccc1C)C(=O)O [Example 561] | 91
13 | CSCC[C@H](NC(=O)c1ccc(OCCCC2CCCCC2)cc1-c1ccccc1C)C(=O)O [Example 564] | 98
14 | CSCC[C@H](NC(=O)c1ccc(OCCOC2CCCCC2)cc1-c1ccccc1C)C(=O)[O-].[Li+] [Example 565] | 94
15 | CSCC[C@H](NC(=O)c1ccc(OCCCOc2ccccc2)cc1-c1ccccc1C)C(=O)O [Example 566] | 98
16 | CSCC[C@H](NC(=O)c1ccc(OCCCCOc2ccccc2)cc1-c1ccccc1C)C(=O)O [Example 568] | 93
17 | CSCC[C@H](NC(=O)c1ccc(CC(Cc2ccccc2)c2ccccc2)cc1-c1ccccc1C)C(=O)[O-].[Li+] (stereo partly shown) [Example 572] | 91
18 | CSCC[C@H](NC(=O)c1ccc(COCc2ccccc2)cc1-c1ccccc1)C(=O)O [Example 575] | 70
19 | Cc1ccccc1-c1cc(COCc2ccccc2)ccc1C(=O)N[C@@H](CCS(C)(=O)=O)C(=O)O [Example 576] | 88
20 | CSCC[C@H](NC(=O)c1ccc(COCc2ccccc2C)cc1-c1ccccc1C)C(=O)[O-].[Li+] [Example 577] | 94
21 | CSCC[C@H](NC(=O)c1ccc(COCc2ccccc2)cc1-c1ccccc1C)C(=O)NS(=O)(=O)c1ccc(C)cc1 [Example 582] | 99
22 | CSCC[C@H](NC(=O)c1ccc(COCc2ccc3ccccc3c2)cc1-c1ccccc1C)C(=O)[O-].[Li+] [Example 583] | 98
23 | CSCC[C@H](NC(=O)c1ccc(COCCc2ccccc2)cc1-c1ccccc1C)C(=O)[O-].[Li+] [Example 587] | 97
24 | CSCC[C@H](NC(=O)c1ccc(COCCCc2ccccc2)cc1-c1ccccc1C)C(=O)[O-].[Li+] [Example 595] | 97

Same assay, conditions: at 1 × 10^-6 M; read-out: % inhibition of farnesyltransferase

Row | Structure (SMILES) | inhibition at 1 µM [%]
25 | CSCC[C@H](NC(=O)c1ccc(NC(=O)Cc2ccccc2)cc1-c1ccccc1C)C(=O)O [Example 540, N-[4-N-phenylacetylamino-2-(2-methylphenyl)benzoyl]methionine lithium salt] | 40
26 | CSCC[C@H](NC(=O)c1ccc(NC(=O)Cc2ccc(C)cc2)cc1-c1ccccc1C)C(=O)O [Example 541, N-[4-N-(4'-methylphenylacetyl)amino-2-(2-methylphenyl)benzoyl]methionine lithium salt] | 37
27 | COc1ccc(CC(=O)Nc2ccc(C(=O)N[C@@H](CCSC)C(=O)O)c(-c3ccccc3C)c2)cc1 [Example 542, N-[4-N-(4'-methoxyphenylacetyl)amino-2-(2-methylphenyl)benzoyl]methionine lithium salt] | 67
28 | COc1ccccc1CCC(=O)Nc1ccc(C(=O)N[C@@H](CCSC)C(=O)O)c(-c2ccccc2C)c1 [Example 544, N-[4-N-(3-(2-methoxyphenyl)propionoyl)amino-2-(2-methylphenyl)benzoyl]methionine lithium salt] | 35

Same assay, conditions: at 1 × 10^-7 M

Row | Structure (SMILES) | % inhibition of farnesyltransferase [%]
29 | CSCC[C@H](NC(=O)c1ccc(COCc2cc3ccccc3o2)cc1-c1ccccc1C)C(=O)[O-].[Li+] [Example 533] | 91
30 | CSCC[C@H](NC(=O)c1ccc(COC(Cc2ccccc2)c2ccco2)cc1-c1ccccc1C)C(=O)[O-].[Li+] (stereo partly shown) [Example 534] | 84
31 | CSCC[C@H](NC(=O)c1ccc(COCCc2ccc(-c3ccc(F)cc3)o2)cc1-c1ccccc1C)C(=O)[O-].[Li+] [Example 535] | 89
32 | CSCC[C@H](NC(=O)c1ccc(COCCc2ccc(-c3ccc(Cl)cc3)o2)cc1-c1ccccc1C)C(=O)[O-].[Li+] [Example 536] | 79
33 | CSCC[C@H](NC(=O)c1ccc(COCc2cncs2)cc1-c1ccccc1C)C(=O)[O-].[Li+] [Example 539] | 89
34 | CSCC[C@H](NC(=O)c1ccc(CSc2ccc3ccccc3c2)cc1-c1ccccc1C)C(=O)O [Example 551] | 93
35 | CSCC[C@H](NC(=O)c1ccc(CSCC2CCCCC2)cc1-c1ccccc1C)C(=O)[O-].[Li+] [Example 559] | 96
36 | CSCC[C@H](NC(=O)c1ccc(CSCCc2ccccc2)cc1-c1ccccc1C)C(=O)[O-].[Li+] [Example 562] | 95
37 | CSCC[C@H](NC(=O)c1ccc(COCc2ccccc2)cc1-c1ccccc1C)C(=O)[O-].[Li+] [Example 571] | 88
38 | CSCC[C@H](NC(=O)c1ccc(COc2ccc3ccccc3c2)cc1-c1ccccc1C)C(=O)O [Example 573] | 72
39 | CSCC[C@H](NC(=O)c1ccc(COc2cccc3ccccc23)cc1-c1ccccc1C)C(=O)O [Example 574] | 81
40 | CSCC[C@H](NC(=O)c1ccc(COCc2cccc(C)c2)cc1-c1ccccc1C)C(=O)[O-].[Li+] [Example 578] | 90
41 | CSCC[C@H](NC(=O)c1ccc(COCc2ccc(C)cc2)cc1-c1ccccc1C)C(=O)[O-].[Li+] [Example 579] | 92
42 | CSCC[C@H](NC(=O)c1ccc(COCc2ccccc2)cc1-c1ccccc1C)C(=O)NS(=O)(=O)c1ccccc1 [Example 580] | 90
43 | CSCC[C@H](NC(=O)c1ccc(COCc2cccc3ccccc23)cc1-c1ccccc1C)C(=O)[O-].[Li+] [Example 584] | 96
44 | CSCC[C@H](NC(=O)c1ccc(COCC2CCCCC2)cc1-c1ccccc1C)C(=O)[O-].[Li+] [Example 585] | 96
45 | COc1ccccc1CCOCc1ccc(C(=O)N[C@@H](CCSC)C(=O)O)c(-c2ccccc2C)c1 [Example 589] | 91
46 | CSCC[C@H](NC(=O)c1ccc(COCCc2ccc(Cl)cc2)cc1-c1ccccc1C)C(=O)[O-].[Li+] [Example 590] | 95
47 | CSCC[C@H](NC(=O)c1ccc(COCCc2cccc3ccccc23)cc1-c1ccccc1C)C(=O)[O-].[Li+] [Example 592] | 93
48 | CSCC[C@H](NC(=O)c1ccc(COCCc2ccc3ccccc3c2)cc1-c1ccccc1C)C(=O)[O-].[Li+] [Example 593] | 86
49 | CSCC[C@H](NC(=O)c1ccc(COCCC2CCCCC2)cc1-c1ccccc1C)C(=O)[O-].[Li+] [Example 594] | 95
50 | CSCC[C@@H](C(=O)[O-])N(C)C(=O)c1ccc(COCCCC2CCCCC2)cc1-c1ccccc1C.[Li+] [Example 597] | 75
51 | CSCC[C@H](NC(=O)c1ccc(COCCCCC2CCCCC2)cc1-c1ccccc1C)C(=O)O [Example 600] | 93
52 | CSCC[C@H](NC(=O)c1ccc(COCCCCc2ccccc2)cc1-c1ccccc1C)C(=O)O [Example 601] | 92

Same assay, conditions: at 1 × 10^-7 M; read-out: % inhibition of farnesyltransferase

Row | Structure (SMILES) | inhibition at 0.1 µM [%]
53 | CSCC[C@H](NC(=O)c1ccc(CN(Cc2ccccc2)Cc2nccs2)cc1-c1ccccc1C)C(=O)O [Example 548, N-[4-N-benzyl-N-(thiazol-2-ylmethyl)aminomethyl-2-(2-methylphenyl)benzoyl]methionine] | 86
54 | CSCC[C@H](NC(=O)c1ccc(CN(Cc2ccccc2)Cc2cncs2)cc1-c1ccccc1C)C(=O)O [Example 549, N-[4-N-benzyl-N-(thiazol-5-ylmethyl)aminomethyl-2-(2-methylphenyl)benzoyl]methionine] | 98

Same assay, conditions: at 1 × 10^-8 M

Row | Structure (SMILES) | % inhibition of farnesyltransferase [%]
55 | CSCC[C@H](NC(=O)c1ccc(CSCc2ccccc2)cc1-c1ccccc1C)C(=O)NS(=O)(=O)c1ccc(C)cc1 [Example 586] | 90
56 | CSCC[C@H](NC(=O)c1ccc(COCCc2ccccc2Cl)cc1-c1ccccc1C)C(=O)[O-].[Li+] [Example 588] | 68
57 | CSCC[C@H](NC(=O)c1ccc(COCCc2ccc(Cl)cc2Cl)cc1-c1ccccc1C)C(=O)[O-].[Li+] [Example 591] | 82
58 | CSCC[C@H](NC(=O)c1ccc(COCCCC23CC4CC(CC(C4)C2)C3)cc1-c1ccccc1C)C(=O)[O-].[Li+] [Example 599] | 86
